Measured values taken from ChEMBL document CHEMBL6115053, “Optimization and Characterization of N-Acetamide Indoles as Antimalarials That Target PfATP4” (J Med Chem, 2025).
≈ marks a conversion by molar mass, not a printed value.

Experiments:
[1] = system: Plasmodium falciparum; experiment: Antiplasmodial activity against asexual Plasmodium falciparum 3D7 infected in human […] cells assessed as reduction in parasite growth measured for 72 hrs by LDH assay; format: functional, organism-based; conditions: 3D7, 72 h
[2] = system: HepG2; experiment: Cytotoxicity against human HepG2 cells assessed as inhibition of cell growth incubated for 48 hrs by celltiterglo assay; format: toxicity, cell-based; conditions: hepg2, 48 h
[3] = Aqueous solubility in PBS buffer at pH 7.4; format: physicochemical
[4] = Metabolic stability in human liver microsome assessed as intrinsic clearance; format: ADME; conditions: microsomes
[5] = Metabolic stability in rat hepatocyte […] assessed as intrinsic clearance measured per 10^6 cells; format: ADME, cell-based; conditions: hepatocytes
[6] = Lipophilicity, logD of compound at pH 7.4 by shake-flask method; format: physicochemical; conditions: buffer

Row | SMILES | EC50 [1] | CC50 [2] | further results
1 | Cc1nnc(-c2ccc3ccn(CC(=O)Nc4c(F)cccc4F)c3c2)o1 | 1.65 µM | > 40 µM | 
2 | Cn1cc(-c2cc3c(ccn3CC(=O)Nc3ccccc3Cl)cn2)cn1 | 8.45 µM | > 40 µM | 
3 | Cc1nn(C)cc1-c1ccc2ccn(CC(=O)Nc3ccccc3Cl)c2c1 | 0.23 µM | > 40 µM | 
4 | Cn1cc(-c2ccc3ccn(CC(=O)Nc4ccccc4Cl)c3c2)c(C(F)(F)F)n1 | 0.043 µM | > 40 µM | solubility kinetic [3]: 2.5 µM (≈ 1.08 µg/mL); intrinsic clearance (CLint) [4]: 488 µL/min/mg; intrinsic clearance (CLint) [5]: 92 uL/min/10^6 cells; logD [6]: 4.7
5 | Cc1nnc(-c2ccc3ccn(CC(=O)Nc4cccc(F)c4Cl)c3c2)o1 | 1.33 µM | > 40 µM | 
6 | Cc1ncc(-c2ccc3ccn(CC(=O)Nc4ccccc4Cl)c3c2)s1 | 1.9 µM | > 40 µM | 
7 | Cc1nnc(-c2ccc3ccn(CC(=O)Nc4cc(F)ccc4Cl)c3c2)o1 | 0.683 µM | > 40 µM | 
8 | Cc1nnc(-c2ccc3ccn(CC(=O)Nc4cc(F)cc(F)c4)c3c2)o1 | 1.18 µM | > 40 µM | 
9 | Cn1cc(-c2ccc3ncn(CC(=O)Nc4ccccc4Cl)c3c2)cn1 | > 10 µM |  | 
10 | Cc1cc(-c2ccc3ccn(CC(=O)Nc4ccccc4Cl)c3c2)ccn1 | 2.83 µM |  | 
11 | COc1cccc(NC(=O)Cn2ccc3ccc(-c4nnc(C)o4)cc32)c1 | 3.6 µM | > 40 µM | 
12 | Cc1nnc(-c2ccc3ccn(CC(=O)Nc4cccc(C#N)c4)c3c2)o1 | 0.99 µM | > 40 µM | 
13 | Cc1noc(-c2ccc3ccn(CC(=O)Nc4ccccc4Cl)c3c2)n1 | > 10 µM |  | 
14 | Cc1nnc(-c2ccc3ccn(CC(=O)Nc4ccccn4)c3c2)o1 | 4.78 µM | > 40 µM | 
15 | COc1cc(NC(=O)Cn2cc(Cl)c3ccc(-c4cn(C)nc4C)cc32)cc(OC)c1OC | 0.022 µM |  | 
16 | COc1cc(NC(=O)Cn2ccc3ccc(-c4nnc(C)o4)cc32)cc(OC)c1 | 1.18 µM | > 40 µM | 
17 | COc1ccc(NC(=O)Cn2ccc3ccc(-c4nnc(C)o4)cc32)cc1OC | 1.55 µM | > 40 µM | 
18 | Cc1nnc(-c2ccc3ccn(CC(=O)Nc4ccc(Cl)cc4)c3c2)o1 | 4.47 µM | > 40 µM | 
19 | Cc1cccc(NC(=O)Cn2ccc3ccc(-c4nnc(C)o4)cc32)c1 | 2.8 µM | > 40 µM | 
20 | Cc1ccc(-c2ccc3ccn(CC(=O)Nc4ccccc4Cl)c3c2)cn1 | > 10 µM |  | 
21 | CC(C)n1cc(-c2ccc3ccn(CC(=O)Nc4ccccc4Cl)c3c2)cn1 | > 10 µM |  | 
22 | Cn1cc(-c2cnc3ccn(CC(=O)Nc4ccccc4Cl)c3c2)cn1 | > 10 µM |  | 
23 | Cc1nnc(-c2ccc3ccn(CC(=O)Nc4cc(Cl)cc(Cl)c4)c3c2)o1 | 3.88 µM | > 40 µM | 

Row | SMILES | EC50 [1] | CC50 [2] | further results
24 | O=C(Cn1ccc2ccc(-c3nnco3)cc21)Nc1ccccc1Cl | > 10 µM |  | 
25 | COc1cc(NC(=O)Cn2ccc3ccc(-c4cnn(C)c4)cc32)cc(OC)c1OC | 0.385 µM | > 40 µM | solubility kinetic [3]: 4.6 µM (≈ 1.93 µg/mL); intrinsic clearance (CLint) [4]: 95 µL/min/mg; intrinsic clearance (CLint) [5]: 4.6 uL/min/10^6 cells; logD [6]: 3.5
26 | Cc1nnc(-c2ccc3ccn(CC(=O)Nc4cccnc4)c3c2)o1 | 4.25 µM | > 40 µM | 
27 | Cc1nnc(-c2ccc3ccn(CC(=O)Nc4cccc(Cl)c4)c3c2)o1 | 0.898 µM | > 40 µM | 
28 | COc1ccc(NC(=O)Cn2ccc3ccc(-c4nnc(C)o4)cc32)cc1 | 7.8 µM | > 40 µM | 
29 | Cc1nnc(-c2ccc3ccn(CC(=O)Nc4ccc(F)cc4)c3c2)o1 | 3.8 µM | > 40 µM | 
30 | Cc1nnc(-c2ccc3ccn(CC(=O)Nc4cccc(C(F)(F)F)c4)c3c2)o1 | 0.615 µM | > 40 µM | 
31 | Cn1ccc(-c2ccc3ccn(CC(=O)Nc4ccccc4Cl)c3c2)n1 | > 10 µM |  | 
32 | O=C(Cn1ccc2ccc(-c3nnc(C(F)(F)F)o3)cc21)Nc1ccccc1Cl | > 10 µM |  | 
33 | CC(C)c1nnc(-c2ccc3ccn(CC(=O)Nc4ccccc4Cl)c3c2)o1 | > 10 µM |  | 
34 | Cc1nnc(-c2ccc3ccn(CC(=O)Nc4cccc(F)c4)c3c2)o1 | 1.45 µM | > 40 µM | 
35 | Cc1cn(CC(=O)Nc2ccccc2Cl)c2cc(-c3cnn(C)c3)ccc12 | 0.868 µM | > 40 µM | 
36 | Cc1nnc(-c2ccc3ccn(CC(=O)Nc4ccc(C#N)cc4)c3c2)o1 | > 10 µM |  | 
37 | Cc1nnc(-c2ccc3ccn(CC(=O)Nc4ccccc4)c3c2)o1 | 1.63 µM | > 40 µM | 
38 | Cc1nnc(-c2ccc3ccn(CC(=O)Nc4cccc(Cl)c4Cl)c3c2)o1 | 1.33 µM | > 40 µM | 
39 | CC(C(=O)Nc1ccccc1Cl)n1ccc2ccc(-c3cnn(C)c3)cc21 (stereo not drawn) |  | > 40 µM | 
40 | Cc1nnc(-c2ccc3ccn(CC(=O)Nc4ccccc4C)c3c2)o1 | 1.18 µM |  | 
41 | Cc1nn(C)c(C)c1-c1ccc2ccn(CC(=O)Nc3ccccc3Cl)c2c1 | 0.31 µM | > 40 µM | 
42 | Cc1nnc(-c2ccc3ccn(CC(=O)Nc4ccccc4C(F)(F)F)c3c2)o1 | 3.1 µM | > 40 µM | 
43 | Cc1nnc(-c2ccc3ccn(CC(=O)Nc4cccnc4Cl)c3c2)o1 | 1.17 µM | > 40 µM | solubility kinetic [3]: 73 µM (≈ 26.8 µg/mL); intrinsic clearance (CLint) [4]: 57 µL/min/mg; intrinsic clearance (CLint) [5]: 27 uL/min/10^6 cells; logD [6]: 2.1
44 | Cc1cccc(-c2ccc3ccn(CC(=O)Nc4ccccc4Cl)c3c2)c1 | 1.11 µM | > 40 µM | 
45 | Cc1nnc(-c2ccc3ccn(CC(=O)Nc4ccncc4Cl)c3c2)o1 | 7.13 µM | > 40 µM | 
46 | Cc1cc2ccc(-c3cnn(C)c3)cc2n1CC(=O)Nc1ccccc1Cl |  | > 40 µM | 

Row | SMILES | EC50 [1] | CC50 [2] | further results
47 | Cn1cc(-c2ccc3c(F)cn(CC(=O)Nc4ccccc4Cl)c3c2)cn1 | 0.33 µM | > 40 µM | 
48 | CCn1cc(-c2ccc3ccn(CC(=O)Nc4ccccc4Cl)c3c2)cn1 | > 10 µM | > 40 µM | 
49 | Cc1nnc(-c2ccc3ccn(CC(=O)Nc4ccncc4)c3c2)o1 | 4.68 µM | > 40 µM | 
50 | O=C(Cn1ccc2ccc(-c3cnn(C(F)F)c3)cc21)Nc1ccccc1Cl | 1.5 µM | > 40 µM | 
51 | Cc1nnc(-c2ccc3ccn(CC(=O)Nc4cc(F)ccc4F)c3c2)o1 | 1.25 µM | > 40 µM | 
52 | Cc1ccc(NC(=O)Cn2ccc3ccc(-c4nnc(C)o4)cc32)cc1 | 5.35 µM | > 40 µM | 
53 | O=C(Cn1ccc2ccc(-c3cnn(-c4ccccc4)c3)cc21)Nc1ccccc1Cl | > 10 µM |  | 
54 | Cc1nnc(-c2ccc3ccn(CC(=O)Nc4ccc(C(F)(F)F)cc4)c3c2)o1 | 2.1 µM | > 40 µM | 
55 | Cc1ccc(-c2ccc3ccn(CC(=O)Nc4ccccc4Cl)c3c2)cc1 | > 10 µM |  | 
56 | Cn1cc(-c2ccc3ccn(CC(=O)Nc4ccccc4Cl)c3n2)cn1 | 1.53 µM | > 40 µM | solubility kinetic [3]: 2.5 µM (≈ 0.915 µg/mL); intrinsic clearance (CLint) [4]: 458 µL/min/mg; intrinsic clearance (CLint) [5]: 92 uL/min/10^6 cells; logD [6]: 3.3
57 | O=C(Cn1ccc2ccc(-c3cnn(CC(F)(F)F)c3)cc21)Nc1ccccc1Cl | > 10 µM |  | 
58 | Cc1nnc(-c2ccc3ccn(CC(=O)N(C)c4ccccc4)c3c2)o1 | > 10 µM |  | 
59 | COc1ccccc1NC(=O)Cn1ccc2ccc(-c3nnc(C)o3)cc21 | > 10 µM |  | 
60 | Cc1cc(-c2ccc3ccn(CC(=O)Nc4ccccc4Cl)c3c2)cnn1 | 3.65 µM |  | 
61 | Cc1ccc(-c2ccc3ccn(CC(=O)Nc4ccccc4Cl)c3c2)s1 | > 10 µM |  | 
62 | Cn1cc(-c2ccc3c(Br)cn(CC(=O)Nc4ccccc4Cl)c3c2)cn1 | 0.165 µM | > 40 µM | 
63 | Cc1nnc(-c2ccc3ccn(CC(=O)Nc4ccccc4F)c3c2)o1 | 2.1 µM | > 40 µM | 
64 | Cn1cc(-c2ccc3cnn(CC(=O)Nc4ccccc4Cl)c3c2)cn1 | > 10 µM |  | 
65 | Cc1n[nH]c(C)c1-c1ccc2ccn(CC(=O)Nc3ccccc3Cl)c2c1 | 3.6 µM | > 40 µM | 
66 | Cc1c(-c2ccc3ccn(CC(=O)Nc4ccccc4Cl)c3c2)cnn1C | 0.248 µM | > 40 µM | 
67 | Cc1nnc(-c2ccc3ccn(CC(=O)Nc4ccccc4C#N)c3c2)o1 | 3.48 µM | > 40 µM | 
68 | O=C(Cn1ccc2ccc(-c3cnn(C(F)(F)F)c3)cc21)Nc1ccccc1Cl | > 10 µM |  | 
